Measurements from ChEMBL document CHEMBL1135869, “Peptide inhibitors of CDK2-cyclin A that target the cyclin recruitment-site: structural variants of the C-terminal Phe” (Bioorg Med Chem Lett, 2002).
Starred links: 1 amine or outer side, 2 acyl side, 3 side chain; linkers in the order of their positions; H or OH if unused. Non-standard residues stand in square brackets, D forms with d. Residues, ends and D or L forms follow the SMILES beside them. X3 = CC(=O)O[C@@H](c1ccccc1)[C@@H](N[*:1])C(=O)[*:2]; X1 = CC(=O)O[C@H](c1ccccc1)[C@H](N[*:1])C(=O)[*:2]; X2 = O=C(/C(=C/c1ccccc1)N[*:1])[*:2]; Phe(ol) = N[C@H](CO)Cc1ccccc1

Legend:
[1] = Inhibition of p21WAF1 peptide recruitment to CDK 2/cyclin-A complex
[2] = Inhibition of competitive binding to cyclin-A kinase complex
[3] = target: Cyclin-dependent kinase 2/cyclin A (Homo sapiens, UniProt P24941); assay: In vitro inhibition of CDK2-cyclin A kinase activity on retinoblastoma protein; format: protein-complex assay

| SMILES | IC50 [1] | IC50 [2] | IC50 [3] |
| --- | --- | --- | --- |
| CC[C@H](C)[C@H](NC(=O)[C@H](CC(C)C)NC(=O)[C@H](CCCN=C(N)N)NC(=O)[C@H](CCCN=C(N)N)NC(=O)[C@H](CCCCN)NC(=O)[C@H](CO)NC(=O)[C@@H](N)Cc1c[nH]cn1)C(=O)N/C(=C\c1ccccc1)C(=O)O (H-HSKRRLI[X2]-OH) | 220 nM | 200 nM | 1300 nM |
| CC[C@H](C)[C@H](NC(=O)[C@H](CC(C)C)NC(=O)[C@H](CCCN=C(N)N)NC(=O)[C@H](CCCN=C(N)N)NC(=O)[C@H](CCCCN)NC(=O)[C@H](C)NC(=O)[C@@H](N)Cc1c[nH]cn1)C(=O)N[C@H](C(=O)O)[C@H](OC(C)=O)c1ccccc1 (H-HAKRRLI[X1]-OH) | 240 nM | 230 nM | 320 nM |
| CC[C@H](C)[C@H](NC(=O)[C@H](CC(C)C)NC(=O)[C@H](CCCN=C(N)N)NC(=O)[C@H](CCCN=C(N)N)NC(=O)[C@H](CCCCN)NC(=O)[C@H](C)NC(=O)[C@@H](N)Cc1c[nH]cn1)C(=O)N[C@@H](C(=O)O)[C@@H](O)c1ccccc1 | 110 nM | 120 nM | – |
| CC[C@H](C)[C@H](NC(=O)[C@H](CC(C)C)NC(=O)[C@H](CCCN=C(N)N)NC(=O)[C@H](CCCN=C(N)N)NC(=O)[C@H](CCCCN)NC(=O)[C@H](CO)NC(=O)[C@@H](N)Cc1c[nH]cn1)C(=O)N[C@H](C(=O)O)[C@H](OC(C)=O)c1ccccc1 (H-HSKRRLI[X1]-OH) | 800 nM | 1320 nM | – |
| CC[C@H](C)[C@H](NC(=O)[C@H](CC(C)C)NC(=O)[C@H](CCCN=C(N)N)NC(=O)[C@H](CCCN=C(N)N)NC(=O)[C@H](CCCCN)NC(=O)[C@H](C)NC(=O)[C@@H](N)Cc1c[nH]cn1)C(=O)N[C@H](CO)Cc1ccccc1 (H-HAKRRLI[Phe(ol)]) | 18 nM | 22 nM | – |
| CC[C@H](C)[C@H](NC(=O)[C@H](CC(C)C)NC(=O)[C@H](CCCN=C(N)N)NC(=O)[C@H](CCCN=C(N)N)NC(=O)[C@H](CCCCN)NC(=O)[C@H](CO)NC(=O)[C@@H](N)Cc1c[nH]cn1)C(=O)N[C@@H](C(=O)O)[C@@H](OC(C)=O)c1ccccc1 (H-HSKRRLI[X3]-OH) | 600 nM | 1820 nM | – |
| CC[C@H](C)[C@H](NC(=O)[C@H](CC(C)C)NC(=O)[C@H](CCCN=C(N)N)NC(=O)[C@H](CCCN=C(N)N)NC(=O)[C@H](CCCCN)NC(=O)[C@H](C)NC(=O)[C@@H](N)Cc1c[nH]cn1)C(=O)N[C@H](C(=O)O)[C@H](O)c1ccccc1 | 28 nM | 74 nM | – |
| CC[C@H](C)[C@H](NC(=O)[C@H](CC(C)C)NC(=O)[C@H](CCCNC(=N)N)NC(=O)[C@H](CCCNC(=N)N)NC(=O)[C@H](CCCCN)NC(=O)[C@H](C)NC(=O)[C@@H](N)Cc1cnc[nH]1)C(=O)N[C@@H](C(=O)O)[C@@H](OC(C)=O)c1ccccc1 | – | – | 200 nM |
| CC[C@H](C)[C@H](NC(=O)[C@H](CC(C)C)NC(=O)[C@H](CCCN=C(N)N)NC(=O)[C@H](CCCN=C(N)N)NC(=O)[C@H](CCCCN)NC(=O)[C@H](CO)NC(=O)[C@@H](N)Cc1c[nH]cn1)C(=O)N[C@H](CO)Cc1ccccc1 | 310 nM | – | 430 nM |
| CC[C@H](C)[C@H](NC(=O)[C@H](CC(C)C)NC(=O)[C@H](CCCN=C(N)N)NC(=O)[C@H](CCCN=C(N)N)NC(=O)[C@H](CCCCN)NC(=O)[C@H](CO)NC(=O)[C@@H](N)Cc1c[nH]cn1)C(=O)N[C@@H](Cc1ccccc1)C(N)=O | – | 4300 nM | 3400 nM |
| CC[C@H](C)[C@H](NC(=O)[C@H](CC(C)C)NC(=O)[C@H](CCCN=C(N)N)NC(=O)[C@H](CCCN=C(N)N)NC(=O)[C@H](CCCCN)NC(=O)[C@H](CO)NC(=O)[C@@H](N)Cc1c[nH]cn1)C(=O)N[C@@H](C(=O)O)[C@@H](O)c1ccccc1 | 710 nM | 760 nM | 1200 nM |
| CC[C@H](C)[C@H](NC(=O)[C@H](CC(C)C)NC(=O)[C@H](CCCN=C(N)N)NC(=O)[C@H](CCCN=C(N)N)NC(=O)[C@H](CCCCN)NC(=O)[C@H](C)NC(=O)[C@@H](N)Cc1c[nH]cn1)C(=O)N[C@@H](C(=O)O)[C@@H](OC(C)=O)c1ccccc1 (H-HAKRRLI[X3]-OH) | 160 nM | 190 nM | – |
| CC[C@H](C)[C@H](NC(=O)[C@H](CC(C)C)NC(=O)[C@H](CCCN=C(N)N)NC(=O)[C@H](CCCN=C(N)N)NC(=O)[C@H](CCCCN)NC(=O)[C@H](C)NC(=O)[C@@H](N)Cc1c[nH]cn1)C(=O)N/C(=C\c1ccccc1)C(=O)O (H-HAKRRLI[X2]-OH) | 54 nM | 60 nM | 70 nM |
| CC[C@H](C)[C@H](NC(=O)[C@H](CC(C)C)NC(=O)[C@H](CCCN=C(N)N)NC(=O)[C@H](CCCN=C(N)N)NC(=O)[C@H](CCCCN)NC(=O)[C@H](CO)NC(=O)[C@@H](N)Cc1c[nH]cn1)C(=O)N[C@H](C(=O)O)[C@H](O)c1ccccc1 | 190 nM | 250 nM | 560 nM |
